Experimental data from patent publication US20090233942A1, “Genetic markers associated with response to antidepressants” (priority 2008, published 2009).

System: beagle dogs
Assay: Pre-clinical study in beagle dogs
Format: in vivo, dog

Cl.N#Cc1ccc2[nH]cc(CCCCN3CCN(c4ccc5oc(C(N)=O)cc5c4)CC3)c2c1 [Vilazodone, 5-{4-[4-(5-Cyano-3-indolyl)-butyl]-1-piperazinyl}-benzofuran-2-carboxamide hydrochloride]
ocular findings: treatment emergent corneal opacities and reduced tear production
